This note sets out measurements from US9193744B2, “Heterocyclic nuclear hormone receptor modulators” (AbbVie Inc., priority 2012, dated 2015).

Experiment [1] concerns the target T1, Glucocorticoid Receptor (GR) (Homo sapiens, UniProt P04150).
T1 construct: purchased Invitrogen P2893
T1 sequence (P04150 1-777): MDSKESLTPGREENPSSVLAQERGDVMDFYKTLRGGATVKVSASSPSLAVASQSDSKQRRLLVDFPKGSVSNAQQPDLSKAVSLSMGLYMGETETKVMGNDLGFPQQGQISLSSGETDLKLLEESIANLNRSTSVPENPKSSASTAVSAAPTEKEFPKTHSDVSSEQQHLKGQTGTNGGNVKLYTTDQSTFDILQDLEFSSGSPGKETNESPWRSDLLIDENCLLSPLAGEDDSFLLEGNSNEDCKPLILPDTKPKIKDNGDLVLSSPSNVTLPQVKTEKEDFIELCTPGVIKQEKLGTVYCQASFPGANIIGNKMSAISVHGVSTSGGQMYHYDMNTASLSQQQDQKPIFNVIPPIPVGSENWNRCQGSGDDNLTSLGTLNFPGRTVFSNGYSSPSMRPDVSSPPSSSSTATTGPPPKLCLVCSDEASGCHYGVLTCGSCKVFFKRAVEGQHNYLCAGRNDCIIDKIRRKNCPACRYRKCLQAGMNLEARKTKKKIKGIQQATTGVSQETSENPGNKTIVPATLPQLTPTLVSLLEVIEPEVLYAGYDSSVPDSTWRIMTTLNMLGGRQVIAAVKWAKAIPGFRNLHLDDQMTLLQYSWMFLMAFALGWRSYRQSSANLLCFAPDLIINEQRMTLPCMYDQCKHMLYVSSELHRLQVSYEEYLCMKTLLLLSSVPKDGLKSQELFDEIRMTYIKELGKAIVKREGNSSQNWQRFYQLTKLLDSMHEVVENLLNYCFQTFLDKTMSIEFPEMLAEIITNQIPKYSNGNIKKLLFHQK
Description: GR Fluorescence Polarization Assay (PolarScreen Glucocorticoid Receptor Competitor Assay, Red). The note with it: fluorescence polarization binding ranges. The method, then: Fluorescence polarization assays were carried out using the PolarScreen™ Glucocorticoid Receptor Competitor Assay, Red from Invitrogen (P2893). The assay buffer was prepared according to the manufacturer's protocol and used to dilute the fluorescent glucocorticoid and GR. Compounds were prepared and serial diluted 1:4 in DMSO. Compound, fluorescent glucocorticoid and GR were added in a final volume of 20 μL and incubated overnight at 4° C. Fluorescent polarization was measured on the PerkinElmer Envision®. Fluorescence polarization binding ranges measured using GR Fluorescence Polarization Assay: […]

Experiment [2] has as its system IL-6. Kind of experiment: A549 Cell Assay to Measure Inflammation Markers (inhibition of IL-1β-induced IL-6). The class given is cell-based. The note with it: Homo sapiens. On the procedure:
A549 Cell Assay to Measure Inflammation Markers
A549 cells were seeded (3E4 cells/well) in 96-well assay plates in culture medium (100 μL/well., F-12 K base media, supplemented with 10% FBS and 100 μ/mL-100 μg/mL Pen-Strep.) After overnight culture in an incubator set to 37° C., 4.9% CO2, and 90% humidity, media was removed from adherent cells by aspiration and replaced with 100 μL/well Assay Medium (F-12 K base media supplemented with 5% charcoal stripped calf sera and 100 U/mL-100 μg/mL Pen-Strep.) Compounds were prepared in DMSO and serial diluted (1:3, 1:4, or 1:5) with DMSO in Dilution Plate(s) to give 10 dilution points for each compound tested. Further dilution (1:250) of compound was made into assay medium and 50 μL/well diluted drug or DMSO/media control was applied to cells. After a 1 h pre-incubation in a temperature, CO2, and humidity controlled incubator, set to 37° C., 50 μL/well of 4 ng/mL IL-1β diluted in assay media, was applied to cultures. Assay plates, with a final volume of 200 μL/well and final concentrations of 0.1% DMSO and 1 ng/mL IL-1β were returned to incubator for a four h incubation period. Next, plates were spun at 183 g (1000 rpm in Beckman/Coulter Allegra 6KR centrifuge) for 10 min. Cell-free supernatant (150 μL/well) was collected and IL-6 was measured by MSD kit, following protocol of manufacturer, and using MSD SECTOR Imager 6000 instrument. Potency of compounds to inhibit IL-6 was determined using the percent reduction of measured IL-6 in wells with compound compared to control wells without drug, and relative to (100% inhibition) positive control compound of 1 μM prednisolone. Results were represented as IC50 and Emax values. To verify that viable cell numbers were similar across plate(s), and not confounding compound IC50 data interpretation, the remaining 50 μL/well of cells and media (after removal of supernatant) were used to run Cell Titer-Glo Assay per directions of manufacturer.

[3] abbreviates: A549 cells, read-out: A549 cell assay.
Where [4] appears, read: A549, read-out: A549 cell assay.

Like-named read-outs stand apart in the source and are kept apart here.

As for `CC[C@]12CC[C@](O)(C(F)(F)F)C[C@H]1CCCc1cc3c(cnn3-c3ccc(F)cc3)cc12` (single isomer, unassigned) [Example 2], the IC50 in experiment [1] and in experiment [2] (setting [3]) was under 100 nM in each case.

Consider `CCC[C@@]1(O)CC[C@]2(CC)c3cc4cnn(-c5ccc(F)cc5)c4cc3CCC[C@H]2C1` (single isomer, unassigned) [Example 6], for which the IC50 in experiment [1] and in experiment [2] (setting [3]) was 100 to 1000 nM each time.

Turning to `CC[C@]12CC[C@](O)(COC)C[C@@H]1CCCc1cc3c(cnn3-c3ccc(F)cc3)cc12` (single isomer, unassigned) [Example 8], the IC50 in experiment [1] is 100 to 1000 nM; in experiment [2] (setting [3]), over 10000 nM.

For `CCOC[C@@]1(O)CC[C@]2(CC)c3cc4cnn(-c5ccc(F)cc5)c4cc3CCC[C@H]2C1` (single isomer, unassigned) [Example 10], the IC50 in experiment [1] is 100 to 1000 nM; in experiment [2] (setting [3]), over 10000 nM.

`C[C@@]1(O)CC[C@@]2(Cc3ccccn3)c3cc4cnn(-c5ccc(F)cc5)c4cc3CCC[C@H]2C1` (single isomer, unassigned) [Example 15]: the IC50 in experiment [1] and in experiment [2] (setting [3]) was under 100 nM in each case.

On to `C[C@]1(O)CC[C@]2(Cc3ccccn3)c3cc4cnn(-c5ccc(F)cc5)c4cc3CCC[C@@H]2C1` (single isomer, unassigned) [Example 16], for which the IC50 in experiment [1] and in experiment [2] (setting [3]) was under 100 nM each time.

On to `N#CC[C@@]1(O)CC[C@@]2(Cc3ccccn3)c3cc4cnn(-c5ccc(F)cc5)c4cc3CCC[C@H]2C1` (single isomer, unassigned) [Example 17], for which the IC50 in experiment [1] and in experiment [2] (setting [3]) was under 100 nM each time.

For `N#CC[C@]1(O)CC[C@]2(Cc3ccccn3)c3cc4cnn(-c5ccc(F)cc5)c4cc3CCC[C@@H]2C1` (single isomer, unassigned) [Example 18], the IC50 in experiment [1] and in experiment [2] (setting [3]) was under 100 nM each time.

Turning to `N#C[C@@]12CC[C@](O)(C(F)(F)F)C[C@H]1CCCc1cc3c(cnn3-c3ccc(F)cc3)cc12` (single isomer, unassigned) [Example 72], the results for the IC50 in experiment [1] and in experiment [2] (setting [3]) were under 100 nM and 100 to 1000 nM, respectively.

Take `N#C[C@]12CC[C@@](O)(C(F)(F)F)C[C@@H]1CCCc1cc3c(cnn3-c3ccc(F)cc3)cc12` (single isomer, unassigned) [Example 73]: the IC50 in experiment [1] was 100 to 1000 nM; in experiment [2] (setting [4]), over 10000 nM.

With `N#CC[C@@]12CC[C@](O)(C(F)(F)F)C[C@H]1CCCc1cc3c(cnn3-c3ccc(F)cc3)cc12` (single isomer, unassigned) [Example 81], the IC50 in experiment [1] and in experiment [2] (setting [4]) was under 100 nM throughout.

As for `N#CC[C@]12CC[C@@](O)(C(F)(F)F)C[C@@H]1CCCc1cc3c(cnn3-c3ccc(F)cc3)cc12` (single isomer, unassigned) [Example 82], the figures for the IC50 in experiment [1] and in experiment [2] (setting [3]) were under 100 nM and 100 to 1000 nM, respectively.

Turning to `CC(=O)NC[C@]12CC[C@@](O)(C(F)(F)F)C[C@@H]1CCCc1cc3c(cnn3-c3ccc(F)cc3)cc12` (single isomer, unassigned) [Example 83], the IC50 in experiment [1] and in experiment [2] (setting [3]) was 100 to 1000 nM in each case.

As for `CC(=O)NC[C@@]12CC[C@](O)(C(F)(F)F)C[C@H]1CCCc1cc3c(cnn3-c3ccc(F)cc3)cc12` (single isomer, unassigned) [Example 84], the IC50 in experiment [1] and in experiment [2] (setting [3]) was under 100 nM in each case.

Turning to `O=C(NC1CC1)[C@]12CC[C@@](O)(C(F)(F)F)C[C@@H]1CCCc1cc3c(cnn3-c3ccc(F)cc3)cc12` (single isomer, unassigned) [Example 87], the IC50 was under 100 nM in experiment [1] and 1000 to 10000 nM in experiment [2] (setting [3]).

Take `CC[C@@]12CC[C@](O)(C(F)(F)F)[C@@H](O)[C@@H]1CCCc1cc3c(cnn3-c3ccc(F)cc3)cc12` (single isomer, unassigned) [Example 96]: the IC50 in experiment [1] and in experiment [2] (setting [3]) was under 100 nM in each case.

Regarding `CC[C@]12CC[C@@](O)(C(F)(F)F)[C@H](O)[C@H]1CCCc1cc3c(cnn3-c3ccc(F)cc3)cc12` (single isomer, unassigned) [Example 97], the IC50 in experiment [1] and in experiment [2] (setting [3]) was under 100 nM each time.

As to `CC[C@@]12C[C@@H](O)[C@](O)(C(F)(F)F)C[C@@H]1CCCc1cc3c(cnn3-c3ccc(F)cc3)cc12` (single isomer, unassigned) [Example 98], the IC50 in experiment [1] and in experiment [2] (setting [3]) was under 100 nM in each case.

`CC[C@]12C[C@H](O)[C@@](O)(C(F)(F)F)C[C@H]1CCCc1cc3c(cnn3-c3ccc(F)cc3)cc12` (single isomer, unassigned) [Example 99]: the IC50 in experiment [1] and in experiment [2] (setting [3]) was under 100 nM each time.

Consider `CC[C@@]12CC[C@](O)(C(F)(F)F)C[C@H]1CC[C@H](O)c1cc3c(cnn3-c3ccc(F)cc3)cc12` (single isomer, unassigned) [Example 104], for which the IC50 in experiment [1] and in experiment [2] (setting [3]) was under 100 nM each time.

As to `CC[C@@]12CC[C@](O)(C(F)(F)F)C=C1CCCc1cc3c(cnn3-c3ccc(F)cc3)cc12` (single isomer, unassigned) [Example 106], the IC50 in experiment [1] and in experiment [2] (setting [3]) was under 100 nM each time.

On to `CC[C@]12CC[C@@](O)(C(F)(F)F)C=C1CCCc1cc3c(cnn3-c3ccc(F)cc3)cc12` (single isomer, unassigned) [Example 107], for which the results for the IC50 in experiment [1] and in experiment [2] (setting [3]) were under 100 nM and 100 to 1000 nM, respectively.

Regarding `C#C[C@@]1(O)CC[C@@]2(CC)c3cc4cnn(-c5ccc(F)cc5)c4cc3CCC[C@@H]2C1` (single isomer, unassigned) [Example 109], the IC50 in experiment [1] and in experiment [2] (setting [3]) was under 100 nM in each case.

On to `C#C[C@]1(O)CC[C@]2(CC)c3cc4cnn(-c5ccc(F)cc5)c4cc3CCC[C@H]2C1` (single isomer, unassigned) [Example 110], for which the IC50 in experiment [1] was under 100 nM; in experiment [2] (setting [3]), 100 to 1000 nM.

For the compound `CC[C@@]12CC(=O)[C@](O)(C(F)(F)F)C[C@H]1CCCc1cc3c(cnn3-c3ccc(F)cc3)cc12` (single isomer, unassigned) [Example 115], the IC50 in experiment [1] and in experiment [2] (setting [3]) was 100 to 1000 nM throughout.

On to `CC[C@]12CC(=O)[C@@](O)(C(F)(F)F)C[C@@H]1CCCc1cc3c(cnn3-c3ccc(F)cc3)cc12` (single isomer, unassigned) [Example 116], for which the IC50 in experiment [1] and in experiment [2] (setting [3]) was 100 to 1000 nM in each case.

Regarding `CC[C@@]12C[C@@](C)(O)[C@](O)(C(F)(F)F)C[C@H]1CCCc1cc3c(cnn3-c3ccc(F)cc3)cc12` (single isomer, unassigned) [Example 117], the IC50 in experiment [1] and in experiment [2] (setting [3]) was under 100 nM in each case.

On to `CC[C@]12C[C@](C)(O)[C@@](O)(C(F)(F)F)C[C@@H]1CCCc1cc3c(cnn3-c3ccc(F)cc3)cc12` (single isomer, unassigned) [Example 118], for which the IC50 in experiment [1] was under 100 nM; in experiment [2] (setting [3]) it was 100 to 1000 nM.

For the compound `CC[C@@]12C[C@@H](O)[C@](O)(C(F)(F)F)C[C@H]1CCCc1cc3c(cnn3-c3ccc(F)cc3)cc12` (single isomer, unassigned) [Example 119], the IC50 in experiment [1] and in experiment [2] (setting [3]) was under 100 nM throughout.

With `CC[C@@]12C[C@H](O)[C@](O)(C(F)(F)F)C[C@H]1CCCc1cc3c(cnn3-c3ccc(F)cc3)cc12` (single isomer, unassigned) [Example 121], the IC50 in experiment [1] and in experiment [2] (setting [3]) was under 100 nM each time.
